The record followed here is US20230203058A1, “MACROCYCLIC DIAMINE DERIVATIVES AS ENT INHIBITORS FOR THE TREATMENT OF CANCERS, AND COMBINATION THEREOF WITH ADENOSINE RECEPTOR ANTAGONISTS” (ITEOS BELGIUM SA, priority 2020, published 2023).

Usually pIC50 stands for −log10 of the IC50, conventionally taken in molar units. A lower pIC50 goes with a high IC50.

pIC50: −log10 of the molar value. Some results are limits rather than exact numbers.

The target of this test is T1, human ENT1 (Homo sapiens, UniProt Q99808).
T1 sequence (Q99808 1-456): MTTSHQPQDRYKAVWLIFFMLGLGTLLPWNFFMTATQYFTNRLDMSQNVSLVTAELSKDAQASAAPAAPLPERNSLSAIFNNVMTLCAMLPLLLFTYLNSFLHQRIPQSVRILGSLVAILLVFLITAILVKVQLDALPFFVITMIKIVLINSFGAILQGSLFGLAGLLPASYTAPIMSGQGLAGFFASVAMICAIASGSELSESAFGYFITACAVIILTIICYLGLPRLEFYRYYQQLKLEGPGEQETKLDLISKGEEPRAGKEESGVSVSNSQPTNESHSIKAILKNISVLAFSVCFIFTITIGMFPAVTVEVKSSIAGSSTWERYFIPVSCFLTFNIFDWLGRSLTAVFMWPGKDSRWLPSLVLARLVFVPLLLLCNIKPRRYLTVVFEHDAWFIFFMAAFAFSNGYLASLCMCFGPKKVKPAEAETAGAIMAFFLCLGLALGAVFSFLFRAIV
Description: ENT1 binding assay (competition with Sahenta-DY647 on JAR cells). The following applies: competition with Sahenta-DY647 100 nM, 4° C. On the set-up: JAR cells expressing ENT1 were bought from ATCC® (HTB-144TM); host or cells: JAR cells (human choriocarcinoma line; whole cells). The method, then:
The present assay aims at showing that the compounds of the present invention can bind to human ENT1. The principle of the assay is a competition between the compounds of this invention and Sahenta-DY647, an ENT1 inhibitor that emits fluorescence (Ex = 630 nm, Em = 670 nm). By measuring the fluorescence at the end of the assay we could assess the binding potency of the compounds of the present invention.
JAR cells expressing ENT1 were bought from ATCC® (HTB-144TM). Cells were cultured in RPMI 1640 medium (LONZA®, #BE12-702F/U1) supplemented with 10% FBS (GIBCO®, #10270-106), 10 mM Hepes (LONZA®, #BE17-737E), 1 mM Sodium Pyruvate (LONZA®, #BE13-115E) and 2% Penicillin/Streptomycin (LONZA®, #DE17-603E) at 37° C. and 5% CO2. The assay was conducted on the following buffer: HBSS (LONZA®, #LO-527F) supplemented with 10 mM Hepes (LONZA®, #BE17-737E) and 0.1% BSA (Miltenyi®, #130-091-376) on the day of the assay. JAR cells were resuspended in the described buffer. Compounds of the present invention and Sahenta-DY647 were diluted 200X in the described buffer.
A total of 50000 cells were pre-incubated for 30 min at 4° C. with the compounds of the present invention before adding the corresponded IC90 of Sahenta-DY647 (100 nM) and incubate once more for 30 min at 4° C. The total volume of the reaction was 100 µL (50 µL of cells, 25 µL of the compounds of the present invention and 25 µL of Sahenta-DY647) in a 96 well plate, U-bottom (Greiner®, #650-180). The plates were washed 2X by centrifugation (4 min, 400 rcf at 4° C.) in the same buffer. Cells were resuspended in 70 µL of the buffer and 50 µL was transferred to a Black 384 Optiplate (PerkinElmer®, #6007279). Fluorescence (Ex = 630 nm, Em = 670 nm) was acquired on a Spectramax i3x (Molecular Devices®).
`COc1cc2cc(c1OC)OCCCC(OC(=O)c1cccc(Cl)c1Cl)CCN1CCCN(CCCOC2=O)CC1` (centres unmarked) [Compound 78, 74,75-dimethoxy-6-oxo-5,8-dioxa-1(1,4)-diazepana-7(1,3)-benzenacyclotetradecaphane-12-yl 2,3-dichlorobenzoate] showed a negative-log IC50 (pIC50) of 7.70 to 9.00.
As for `COc1cc2cc(c1OC)OCCC[C@@H](OC(=O)c1ccccc1)CCN(C)CCN(C)CCCOC2=O` [Compound 35, (R)-15,16-dimethoxy-9,12-dimethyl-17-oxo-2,16-dioxa-9,12-diaza-1(1,3)-benzenacycloheptadecaphane-6-yl benzoate], the negative logarithm of the IC50 (pIC50) is 7.70 to 9.00.
Consider `COc1cc2cc(c1OC)OCCCC(OC(=O)C1CCCC(OC)C1)CCN1CCCN(CCCOC2=O)CC1` (centres unmarked) [Compound 111, 74,75-dimethoxy-6-oxo-5,8-dioxa-1(1,4)-diazepana-7(1,3)-benzenacyclotetradecaphane-12-yl 3-methoxycyclohexane-1-carboxylate], for which the negative-log IC50 (pIC50) was 7.70 to 9.00.
`COc1cc(C(=O)O[C@H]2CCCOc3cc(cc(OC)c3OC)C(=O)N(C)CCCN3CCCN(CC2)CC3)cc(OC)c1OC` [Compound 12, (12S)-74,75-dimethoxy-5-methyl-6-oxo-8-oxa-5-aza-1(1,4)-diazepana-7(1,3)-benzenacyclotetradecaphane-12-yl 3,4,5-trimethoxybenzoate] gave a negative-log IC50 (pIC50) of less than 6.30.
Compound `COc1cc2cc(c1OC)OCCCC(OC(=O)CCn1cncn1)CCN1CCCN(CCCOC2=O)CC1` (centres unmarked) [Compound 102, 74,75-dimethoxy-6-oxo-5,8-dioxa-1 (1,4)-diazepana-7(1,3)-benzenacyclotetradecaphane-12-yl 3-(1H-1,2,4-triazol-1-yl)propanoate] had a negative-log IC50 (pIC50) of 7.70 to 9.00.
In turn, `COc1cc2cc(c1OC)OCCCC(n1cc(-c3ccccc3)nn1)CCN1CCCN(CCCOC2=O)CC1` (centres unmarked) [Compound 108, 74,75-dimethoxy-12-(4-phenyl-1 H-1,2,3-triazol-1-yl)-5,8-dioxa-1(1,4)-diazepana-7(1,3)-benzenacyclotetradecaphan-6-one] gave a pIC50 of less than 6.30.
Compound `COc1cc2cc(c1OC)OCCCC(OC(=O)C1CCC(OC)CC1)CCN1CCCN(CCCOC2=O)CC1` (centres unmarked) [Compound 70, 74,75-dimethoxy-6-oxo-5,8-dioxa-1(1,4)-diazepana-7(1,3)-benzenacyclotetradecaphane-12-yl 4-methoxycyclohexane-1-carboxylate] showed a negative-log IC50 (pIC50) of 7.70 to 9.00.
For the compound `COc1cc(C(=O)OC2CCCOc3cc(cc(C(N)=O)c3Cl)C(=O)OCCCN3CCCN(CC2)CC3)cc(OC)c1OC` (centres unmarked) [Compound 120, 75-carbamoyl-74-chloro-6-oxo-5,8-dioxa-1(1,4)-diazepana-7(1,3)-benzenacyclotetradecaphane-12-yl 3,4,5-trimethoxybenzoate], the pIC50 was 7.70 to 9.00.
`COc1cc2cc(c1OC)OCCCC(OC(=O)c1c(F)cccc1F)CCN1CCCN(CCCOC2=O)CC1` (centres unmarked) [Compound 71, 74,75-dimethoxy-6-oxo-5,8-dioxa-1(1,4)-diazepana-7(1,3)-benzenacyclotetradecaphane-12-yl 2,6-difluorobenzoate] showed a negative-log IC50 (pIC50) of 7.70 to 9.00.
As for `COc1cc2cc(c1OC)OCCCC(OC(=O)c1ccccc1F)CCN1CCCN(CCCOC2=O)CC1` (centres unmarked) [Compound 47, 74,75-dimethoxy-6-oxo-5,8-dioxa-1(1,4)-diazepana-7(1,3)-benzenacyclotetradecaphane-12-yl 2-fluorobenzoate], the negative logarithm of the IC50 (pIC50) was 7.70 to 9.00.
Regarding `COc1cc(C(=O)O[C@H]2CCCn3cc4c(Cl)cc(cc4n3)C(=O)NCCCN3CCCN(CC2)CC3)cc(OC)c1OC` [Compound 25, (11Z, 16E, 10S)-14-chloro-2-oxo-12 H-3-aza-1(6,2)-indazola-7(1,4)-diazepanacyclotridecaphane-10-yl 3,4,5-trimethoxybenzoate], the pIC50 is less than 6.30.
For `COc1cc2cc(c1OC)OCCCC(OC(=O)c1cccc(OC(F)F)c1)CCN1CCCN(CCCOC2=O)CC1` (centres unmarked) [Compound 75, 74,75-dimethoxy-6-oxo-5,8-dioxa-1(1,4)-diazepana-7(1,3)-benzenacyclotetradecaphane-12-yl 3-(difluoromethoxy)benzoate], the pIC50 is 6.30 to 7.70.
Regarding `COc1cc2cc(c1OC)OCCC[C@H](O/N=C/c1ccccc1)CCN1CCCN(CCCNC2=O)CC1` (stereo in doubt) [Compound 116, (E)-benzaldehyde O-((12S)-74,75-dimethoxy-6-oxo-8-oxa-5-aza-1(1,4)-diazepana-7(1,3)-benzenacyclotetradecaphane-12-yl) oxime], the negative-log IC50 (pIC50) was less than 6.30.
The compound `COc1cc2cc(c1OC)OCCCC(OC(=O)c1ccc3c(c1)ncn3C)CCN1CCCN(CCCOC2=O)CC1` (centres unmarked) [Compound 89, 74,75-dimethoxy-6-oxo-5,8-dioxa-1(1,4)-diazepana-7(1,3)-benzenacyclotetradecaphane-12-yl 1-methyl-1 H-benzo [d] imidazole-5-carboxylate] had a pIC50 of 7.70 to 9.00.
For the compound `COc1cc2cc(c1OC)OCCCC(O/N=C/c1ccccc1)CCN1CCCN(CCCNC2=O)CC1` (centres unmarked) [Compound 114, (E)-benzaldehyde O-(74,75-dimethoxy-6-oxo-8-oxa-5-aza-1(1,4)-diazepana-7(1,3)-benzenacyclotetradecaphane-12-yl) oxime], the pIC50 is less than 6.30.
As to `COc1cc2cc(c1OC)OCCCC(OC(=O)C1CCC(C(F)(F)F)CC1)CCN1CCCN(CCCOC2=O)CC1` (centres unmarked) [Compound 106, 74,75-dimethoxy-6-oxo-5,8-dioxa-1(1,4)-diazepana-7(1,3)-benzenacyclotetradecaphane-12-yl 4-(trifluoromethyl)cyclohexane-1-carboxylate], the pIC50 was 7.70 to 9.00.
For `COc1cc2cc(c1OC)OCCCC(OC(=O)c1cc(C)cc(C(F)(F)F)c1)CCN1CCCN(CCCOC2=O)CC1` (centres unmarked) [Compound 49, 74,75-dimethoxy-6-oxo-5,8-dioxa-1(1,4)-diazepana-7(1,3)-benzenacyclotetradecaphane-12-yl 3-methyl-5-(trifluoromethyl)benzoate] the value was 6.30 to 7.70; for `COc1cc2cc(c1OC)OCCCC(O)CCN1CCCN(CCCOC2=O)CC1` (centres unmarked) [Compound 38, 12-hydroxy-74,75-dimethoxy-5,8-dioxa-1(1,4)-diazepana-7(1,3)-benzenacyclotetradecaphan-6-one], less than 6.30.
The compound `COc1ccc(C(=O)OC2CCCOc3cc(cc(OC)c3OC)C(=O)OCCCN3CCCN(CC2)CC3)c(OC(F)(F)F)c1` (centres unmarked) [Compound 51, 74,75-dimethoxy-6-oxo-5,8-dioxa-1(1,4)-diazepana-7(1,3)-benzenacyclotetradecaphane-12-yl 4-methoxy-2-(trifluoromethoxy)benzoate] had a pIC50 of 6.30 to 7.70.
`COc1cc2cc(c1OC)OCCCC(OC(=O)c1ccc(F)c(Cl)c1)CCN1CCCN(CCCOC2=O)CC1` (centres unmarked) [Compound 27, 74,75-dimethoxy-6-oxo-5,8-dioxa-1(1,4)-diazepana-7(1,3)-benzenacyclotetradecaphane-12-yl 3-chloro-4-fluorobenzoate]: the pIC50 is 7.70 to 9.00.
In turn, `COc1cc2cc(c1OC)OCCCC(OC(=O)c1cc(Cl)c(Cl)cc1F)CCN1CCCN(CCCOC2=O)CC1` (centres unmarked) [Compound 91, 74,75-dimethoxy-6-oxo-5,8-dioxa-1(1,4)-diazepana-7(1,3)-benzenacyclotetradecaphane-12-yl 4,5-dichloro-2-fluorobenzoate] had a pIC50 of 7.70 to 9.00.
The compound `COc1cc(C(=O)O[C@@H]2CCCOc3cc(cc(OC)c3OC)C(=O)OCCCC3CCN(CC3)CC2)cc(OC)c1OC` [Compound 34, (R)-74,75-dimethoxy-6-oxo-5,8-dioxa-1(4,1)-piperidina-7(1,3)-benzenacyclotetradecaphane-12-yl 3,4,5-trimethoxybenzoate] showed a pIC50 of 7.70 to 9.00.
Regarding `COc1cc(C(=O)O[C@H]2CCCOc3cc(cc(Cl)c3C(N)=O)C(=O)NCCCN3CCCN(CC2)CC3)cc(OC)c1OC` [Compound 121, (12S)-74-carbamoyl-75-chloro-6-oxo-8-oxa-5-aza-1(1,4)-diazepana-7(1,3)-benzenacyclotetradecaphane-12-yl 3,4,5-trimethoxybenzoate], the negative-log IC50 (pIC50) is 6.30 to 7.70.
